Reference: patent US11136325B2, “Pyrrolopyrimidine and pyrrolopyridine derivatives” (GALAPAGOS NV, priority 2017, dated 2021)

Molecular target: Full length human ASK1 protein (Homo sapiens (Human), UniProt Q99683)
Experiment: ASK1 biochemical assay (AlphaScreen technology, MKK7 phosphorylation)
Conditions: 150 μM ATP, 400 nM MKK7, 0.8 nM ASK1
Text: ASK1 and ASK2 biochemical activities were also quantified using AlphaScreen technology which measures the degree of phosphorylation of a protein substrate (MKK7). AlphaScreen technology is based on the binding of a substrate to two types of beads, acceptor and donor. Binding to one bead is through the tag of the substrate protein. Binding of the second bead is through phosphospecific binding of antibody to the phosphosite of the substrate. This forms a sandwich, with the acceptor and donor beads in close proximity. When the donor beads are excited by light in the 680 nm range, a singlet oxygen is released and causes emission of light from the acceptor in the 620 nm range which can be detected using a suitable plate reader.
The phosphorylation site on MKK7 (Ser271/Thr275) is then recognised by a phosphospecific antibody. The phosphospecific antibody is bound to the AlphaScreen acceptor beads through a Protein-A interaction. Phosphorylation of MKK7 by ASK1 or ASK2 subsequently facilitates the bringing together of the donor and acceptor beads into close proximity whereupon the transfer of the singlet oxygen leads to the generation of the AlphaScreen signal.
The assay was configured to run using the following conditions (final concentrations): 150 μM ATP; 400 nM MKK7; 0.8 nM ASK1 and 2 nM ASK2.
100 nL of test compound (starting concentration 6 μM, 11 concentrations with 3 fold serial dilutions) in 100% DMSO was added to low volume 384 well plates. 2.5 μl of ASK1 or ASK2 was added to each well except in the control wells to which 2.5 μl buffer was added. 2.5 μl of MKK7 solution was added to all wells. The plate was incubated for 60 minutes at room temperature. Protein-A acceptor beads and phospho-specific antibody were incubated for 30 minutes and then 2.5 μl of Protein-A acceptor beads/phospho-specific antibody mix (2.5 μg/ml acceptor beads final concentration and 1/800 antibody final dilution) was added to each well. The plate was incubated for 30 minutes at room temperature and then 2.5 μl of GSH donor beads (10 μg/ml […] final concentration) was added to each well. The plate was incubated for a further 60 minutes at room temperature, following which the plate was read on a Perkin Elmer Enspire plate reader.
Calculation of IC50 data, curves and QC analysis were made by using Excel tools and GraphPadPrism software, v. 5.03. Briefly, individual concentration-effect curves were generated by plotting the logarithm of the tested concentration of tested compounds (X) vs. corresponding percent inhibition values (Y) using least squares (ordinary) fit. Fitting equation used for IC50 calculation=log(inhibitor) vs. response−Variable slope (four parameters).

Chain of Full length human ASK1 protein (Q99683 whole entry): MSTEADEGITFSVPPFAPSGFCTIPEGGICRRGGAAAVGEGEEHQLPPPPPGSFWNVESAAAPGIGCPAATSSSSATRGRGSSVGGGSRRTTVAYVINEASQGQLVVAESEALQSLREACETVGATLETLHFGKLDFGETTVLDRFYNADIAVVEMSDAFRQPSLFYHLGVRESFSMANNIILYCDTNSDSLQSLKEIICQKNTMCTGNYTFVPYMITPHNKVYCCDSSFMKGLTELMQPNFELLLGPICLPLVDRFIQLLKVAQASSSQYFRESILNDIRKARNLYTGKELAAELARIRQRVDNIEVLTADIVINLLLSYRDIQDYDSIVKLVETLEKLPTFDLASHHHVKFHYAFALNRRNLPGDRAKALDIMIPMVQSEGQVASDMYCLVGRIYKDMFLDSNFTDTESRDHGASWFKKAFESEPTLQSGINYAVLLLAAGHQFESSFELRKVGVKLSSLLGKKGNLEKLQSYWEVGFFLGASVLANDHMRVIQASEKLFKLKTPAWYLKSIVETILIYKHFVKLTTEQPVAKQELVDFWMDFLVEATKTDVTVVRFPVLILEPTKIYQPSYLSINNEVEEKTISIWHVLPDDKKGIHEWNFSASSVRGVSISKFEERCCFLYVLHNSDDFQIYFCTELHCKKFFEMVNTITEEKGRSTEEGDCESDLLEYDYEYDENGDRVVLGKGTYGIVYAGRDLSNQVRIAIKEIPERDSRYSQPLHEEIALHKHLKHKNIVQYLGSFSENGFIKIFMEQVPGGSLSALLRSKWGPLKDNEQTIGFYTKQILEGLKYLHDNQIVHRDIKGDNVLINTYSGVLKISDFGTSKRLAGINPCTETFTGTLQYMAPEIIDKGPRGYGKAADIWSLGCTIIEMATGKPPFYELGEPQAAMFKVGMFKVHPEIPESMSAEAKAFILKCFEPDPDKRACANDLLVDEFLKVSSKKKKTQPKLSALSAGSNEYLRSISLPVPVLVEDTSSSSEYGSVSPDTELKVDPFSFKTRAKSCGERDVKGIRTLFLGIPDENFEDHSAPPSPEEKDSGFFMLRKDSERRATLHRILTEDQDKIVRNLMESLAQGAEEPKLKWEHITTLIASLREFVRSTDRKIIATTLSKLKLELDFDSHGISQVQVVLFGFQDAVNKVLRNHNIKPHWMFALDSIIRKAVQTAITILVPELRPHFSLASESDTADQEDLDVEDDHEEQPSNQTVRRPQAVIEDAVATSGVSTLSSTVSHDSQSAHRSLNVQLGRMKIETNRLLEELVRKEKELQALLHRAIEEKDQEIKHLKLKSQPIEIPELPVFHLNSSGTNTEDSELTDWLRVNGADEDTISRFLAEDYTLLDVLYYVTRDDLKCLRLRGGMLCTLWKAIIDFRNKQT

Q: With Nc1cc(C(=O)NC2CCN(c3ncnc4[nH]cc(Cl)c34)CC2)c(F)cn1 [Compound 5, 2-amino-N-[1-(5-chloro-7H-pyrrolo[2,3-d]pyrimidin-4-yl)-4-piperidyl]-5-fluoro-pyridine-4-carboxamide] as the compound, how does the “Inhibition (pIC50) ASK1” value read?
A: The value was 8.8/—.

Q: Which “Inhibition (pIC50) ASK1” value does the source give for Cc1c[nH]c2ncnc(N3CCC(NC(=O)c4cc(N)ncc4F)CC3)c12 [Compound 1, 2-amino-5-fluoro-N-[1-(5-methyl-7H-pyrrolo[2,3-d]pyrimidin-4-yl)-4-piperidyl]pyridine-4-carboxamide] here?
A: Its value is 8.72.

Q: For Nc1cc(C(=O)NC2CCN(c3ccnc4[nH]cc(Cl)c34)CC2)c(F)cn1 [Compound 7, 2-amino-N-[1-(3-chloro-1H-pyrrolo[2,3-b]pyridin-4-yl)-4-piperidyl]-5-fluoro-pyridine-4-carboxamide], which “Inhibition (pIC50) ASK1” value is on record?
A: Its value is 8.24/—^.

Q: How did the “Inhibition (pIC50) ASK1” value turn out when Cc1c[nH]c2ncnc(N3CCC(NC(=O)c4cc(N)ncc4Cl)CC3)c12 [Compound 3, 2-amino-5-chloro-N-[1-(5-methyl-7H-pyrrolo[2,3-d]pyrimidin-4-yl)-4-piperidyl]-pyridine-4-carboxamide] was run?
A: The value was 8.7.

Q: Which “Inhibition (pIC50) ASK1” value does the source give for Cc1cnc(N)cc1C(=O)NC1CCN(c2ncnc3[nH]cc(C)c23)CC1 [Compound 2, 2-amino-5-methyl-N-[1-(5-methyl-7H-pyrrolo[2,3-d]pyrimidin-4-yl)-4-piperidyl]pyridine-4-carboxamide] here?
A: The value was 8.9/—.

Q: With Nc1cc(C(=O)NC2CCN(c3ncnc4[nH]cc(Cl)c34)CC2)ccn1 [Compound 4, 2-amino-N-[1-(5-chloro-7H-pyrrolo[2,3-d]pyrimidin-4-yl)-4-piperidyl]pyridine-4-carboxamide] as the compound, how does the “Inhibition (pIC50) ASK1” value read?
A: The value was 9.4.

Q: For Cc1c[nH]c2ncc(C#N)c(N3CCC(NC(=O)c4cc(N)ncc4F)CC3)c12 [Compound 6, 2-amino-N-[1-(5-cyano-3-methyl-1H-pyrrolo[2,3-b]pyridin-4-yl)-4-piperidyl]-5-fluoro-pyridine-4-carboxamide], which “Inhibition (pIC50) ASK1” value is on record?
A: The value was 8.98/—^.
